Consider 10 compounds from ChEMBL document CHEMBL1201862, “PubChem BioAssay data set” (2004).

Assay [1] in a line: Luminescence Cell-Based Dose Retest to Confirm Inhibitors of Cancer Stem Cells. [Related pubchem assays (depositor defined):AID2717, AID2721]. The format is functional. Particulars: Homo sapiens.
Another assay addresses ORF 73 (Human herpesvirus 8, UniProt O40947). Put plainly: inhibitors of C-LANA binding to LBS DNA, dose response, biochemical, fluorescence polarization, cherry-picked samples (AID 504725).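 Also: fluorescence polarization of a labeled DNA duplex reporting LANA DNA binding; potency is for inhibitors that block LANA binding to the DNA.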 More on the design: species or system Human gammaherpesvirus 8. For orientation: Polarisation of emitted light reports the rotation of a fluorescent probe.
Assay [2] deals with UDP-galactopyranose mutase (Mycobacterium tuberculosis, UniProt P9WIQ1). Put plainly: Inhibitors of Mycobacterium tuberculosis UDP-galactopyranose mutase (UGM) enzyme Measured in Biochemical System Using Plate Reader - 2105-02_Inhibitor_Dose_CherryPick_Activity. [Related pubchem assays (depositor defined):AID504439].
Another assay addresses Keap1/Nrf2 (Homo sapiens, UniProt Q14145). Description: Keap1-Nrf2 protein-protein interaction inhibitors, dose response, biochemical, fluorescence polarization, cherry-picked samples (AID 588683).
A short description of a further assay: cells. The conditions noted are these: HEK293.
The test system of assay [3] is Vero. Put plainly: cells. The format is functional, cell-based. Particulars: Chlorocebus sabaeus.
The test system of assay [4] is Vero. Put plainly: cells. The format is functional. The conditions noted are these: Chlorocebus sabaeus.
Assay [5] deals with T1, Mannose-6-phosphate isomerase (Homo sapiens, UniProt P34949).
T1 sequence (P34949 whole entry): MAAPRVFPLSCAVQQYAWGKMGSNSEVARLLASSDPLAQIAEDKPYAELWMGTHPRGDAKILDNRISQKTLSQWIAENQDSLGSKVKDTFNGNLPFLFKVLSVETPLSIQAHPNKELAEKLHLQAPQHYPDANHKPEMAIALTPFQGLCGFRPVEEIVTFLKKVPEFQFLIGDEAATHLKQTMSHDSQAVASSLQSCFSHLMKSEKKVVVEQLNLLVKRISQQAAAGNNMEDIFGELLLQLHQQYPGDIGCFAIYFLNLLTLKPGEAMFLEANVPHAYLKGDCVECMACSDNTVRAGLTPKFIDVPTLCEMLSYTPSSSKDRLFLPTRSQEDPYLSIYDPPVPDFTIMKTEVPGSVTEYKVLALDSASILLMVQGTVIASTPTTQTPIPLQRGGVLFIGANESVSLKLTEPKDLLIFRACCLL
Put plainly: PMI enzyme inhibitors, confirmation, biochemical, fluorescence intensity (AID 1535).

Another assay has as its target Phosphomannomutase 2 (Homo sapiens, UniProt O15305). Put plainly: Counter screen SAR assay for PMM2 inhibitors via a fluorescence intensity assay. [Related pubchem assays (depositor defined):AID1545, AID1574]. Background: Counterscreens check selectivity or assay interference.
Assay [6] concerns BJ. Put plainly: cytotoxicity toward BJ-TERT fibroblasts, dose response, cell-based, RAS-independent, luminescence (AID 1933). The conditions noted are these: Homo sapiens. The format is functional.
The test system of assay [7] is BJ. Put plainly: cells. Particulars: Homo sapiens. The format is functional, cell-based.
Assay [8] deals with BJ. Description: cytotoxicity toward BJ-TERT-LT-ST fibroblasts, dose response, cell-based, RAS-independent, luminescence (AID 1935).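 Also: BJ fibroblasts immortalized with TERT plus LT and ST oncogenes.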 The format is functional. The conditions noted are these: Homo sapiens.
Assay [9] in a line: cytotoxicity toward DRD oncogenic fibroblasts, dose response, cell-based, non-viral oncogenic, luminescence (AID 1934). The format is functional. Particulars: Homo sapiens.
The subject of assay [10] is BJ. Description: cytotoxicity toward Ras-transformed BJeLR fibroblasts, dose response, cell-based, alamar blue fluorescence, cherrypicked samples (AID 2631).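 Also: confirmatory dose-response assay in RAS-dependent BJ fibroblasts engineered with TERT, LT and ST, with cytotoxicity read by fluorescence.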 The conditions noted are these: Homo sapiens. The format is functional. A general note: Resazurin is reduced to fluorescent resorufin, in cell work by metabolically active cells.
Assay [11] deals with T2, Endoribonuclease toxin MazF (Escherichia coli K-12, UniProt P0AE70).
T2 sequence (P0AE70 whole entry): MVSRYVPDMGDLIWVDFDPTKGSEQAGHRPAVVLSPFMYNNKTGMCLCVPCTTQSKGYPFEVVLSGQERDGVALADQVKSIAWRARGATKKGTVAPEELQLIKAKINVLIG
Put plainly: MazF toxin RNase activators, dose response, biochemical, fluorescence, single-stranded RNA substrate, uHTS hits (AID 588481). The format is functional.

Another assay has as its system INS1. Put plainly: beta cell apoptosis inhibitors, cytokine rescue, dose response, luminescence, retest (AID 449756).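 Also: cell death triggered by IL-1 beta plus TNF-alpha plus IFN-gamma mixture; protective hits raise ATP signal compared with cytokine alone wells.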 The format is functional, cell-based. The conditions noted are these: Rattus norvegicus.
For assay [12], the target named is T2, Endoribonuclease toxin MazF. Description: fluorescent RNA oligo signal without MazF, dose response, counter-screen for MazEF activator project, biochemical, fluorescence, single-stranded RNase substrate (AID 588502). The format is functional.
In a further assay the test system is HeLa. Description: HeLa cell cytotoxicity, dose response, cytotoxicity control for MITF activator project, CellTiter-Glo luminescence, cherry-pick samples (AID 540259). Particulars: Homo sapiens. The format is functional, cell-based.

Active and inactive are the calls of the source. A value given as a limit tells only on which side of the number the result lay.

Chain of Phosphomannomutase 2 (O15305 whole entry): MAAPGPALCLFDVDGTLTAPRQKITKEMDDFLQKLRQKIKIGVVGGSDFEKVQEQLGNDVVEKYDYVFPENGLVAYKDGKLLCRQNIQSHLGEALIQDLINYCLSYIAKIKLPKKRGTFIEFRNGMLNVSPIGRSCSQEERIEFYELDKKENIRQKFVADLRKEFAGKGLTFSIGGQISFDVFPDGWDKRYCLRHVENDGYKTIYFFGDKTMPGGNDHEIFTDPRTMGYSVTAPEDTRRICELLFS
Chain of Keap1/Nrf2 (Q16236 whole entry): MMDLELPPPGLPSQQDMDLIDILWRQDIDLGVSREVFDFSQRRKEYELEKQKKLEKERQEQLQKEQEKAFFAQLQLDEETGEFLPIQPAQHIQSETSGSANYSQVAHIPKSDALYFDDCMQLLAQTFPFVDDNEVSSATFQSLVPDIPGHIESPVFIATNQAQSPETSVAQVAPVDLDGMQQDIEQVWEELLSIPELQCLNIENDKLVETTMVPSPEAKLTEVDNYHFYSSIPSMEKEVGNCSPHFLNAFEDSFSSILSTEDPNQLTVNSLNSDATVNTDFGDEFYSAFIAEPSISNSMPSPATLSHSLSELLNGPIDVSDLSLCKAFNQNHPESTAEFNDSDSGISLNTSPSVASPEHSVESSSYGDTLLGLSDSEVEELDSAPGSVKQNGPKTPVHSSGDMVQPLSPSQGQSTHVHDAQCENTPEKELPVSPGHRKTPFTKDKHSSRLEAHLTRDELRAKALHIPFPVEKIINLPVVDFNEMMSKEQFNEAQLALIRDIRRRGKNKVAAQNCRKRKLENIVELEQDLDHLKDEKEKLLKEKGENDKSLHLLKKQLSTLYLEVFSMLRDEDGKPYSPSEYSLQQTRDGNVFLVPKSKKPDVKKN
Chain of Keap1/Nrf2 (Q14145 whole entry): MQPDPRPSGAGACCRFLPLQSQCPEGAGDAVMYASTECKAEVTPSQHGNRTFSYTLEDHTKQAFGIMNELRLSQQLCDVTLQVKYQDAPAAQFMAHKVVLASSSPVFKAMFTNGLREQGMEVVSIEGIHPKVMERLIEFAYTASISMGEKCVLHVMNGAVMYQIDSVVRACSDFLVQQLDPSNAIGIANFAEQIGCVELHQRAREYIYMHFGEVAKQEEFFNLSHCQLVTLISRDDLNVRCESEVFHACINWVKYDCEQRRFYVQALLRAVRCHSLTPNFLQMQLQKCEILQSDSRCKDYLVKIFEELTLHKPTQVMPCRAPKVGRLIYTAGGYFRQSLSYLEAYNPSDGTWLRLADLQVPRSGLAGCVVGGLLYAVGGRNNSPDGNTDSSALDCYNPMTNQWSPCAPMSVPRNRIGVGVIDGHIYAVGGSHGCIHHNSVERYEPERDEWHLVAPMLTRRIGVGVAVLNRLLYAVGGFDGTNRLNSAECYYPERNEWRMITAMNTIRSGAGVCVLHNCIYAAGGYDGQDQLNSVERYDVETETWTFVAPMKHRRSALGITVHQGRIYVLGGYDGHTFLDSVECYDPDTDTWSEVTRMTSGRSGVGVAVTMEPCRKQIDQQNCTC
Chain of UDP-galactopyranose mutase (P9WIQ1 whole entry): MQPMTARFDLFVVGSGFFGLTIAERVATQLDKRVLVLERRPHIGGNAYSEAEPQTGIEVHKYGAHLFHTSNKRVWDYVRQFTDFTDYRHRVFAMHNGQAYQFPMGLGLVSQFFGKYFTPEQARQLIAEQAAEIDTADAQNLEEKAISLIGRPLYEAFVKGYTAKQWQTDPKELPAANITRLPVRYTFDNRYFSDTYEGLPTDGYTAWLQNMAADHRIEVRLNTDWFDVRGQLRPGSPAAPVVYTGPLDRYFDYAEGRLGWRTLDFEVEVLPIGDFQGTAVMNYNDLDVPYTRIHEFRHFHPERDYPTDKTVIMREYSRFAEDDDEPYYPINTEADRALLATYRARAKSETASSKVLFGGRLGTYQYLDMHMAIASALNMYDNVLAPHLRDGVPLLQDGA
Chain of ORF 73 (O40947 whole entry): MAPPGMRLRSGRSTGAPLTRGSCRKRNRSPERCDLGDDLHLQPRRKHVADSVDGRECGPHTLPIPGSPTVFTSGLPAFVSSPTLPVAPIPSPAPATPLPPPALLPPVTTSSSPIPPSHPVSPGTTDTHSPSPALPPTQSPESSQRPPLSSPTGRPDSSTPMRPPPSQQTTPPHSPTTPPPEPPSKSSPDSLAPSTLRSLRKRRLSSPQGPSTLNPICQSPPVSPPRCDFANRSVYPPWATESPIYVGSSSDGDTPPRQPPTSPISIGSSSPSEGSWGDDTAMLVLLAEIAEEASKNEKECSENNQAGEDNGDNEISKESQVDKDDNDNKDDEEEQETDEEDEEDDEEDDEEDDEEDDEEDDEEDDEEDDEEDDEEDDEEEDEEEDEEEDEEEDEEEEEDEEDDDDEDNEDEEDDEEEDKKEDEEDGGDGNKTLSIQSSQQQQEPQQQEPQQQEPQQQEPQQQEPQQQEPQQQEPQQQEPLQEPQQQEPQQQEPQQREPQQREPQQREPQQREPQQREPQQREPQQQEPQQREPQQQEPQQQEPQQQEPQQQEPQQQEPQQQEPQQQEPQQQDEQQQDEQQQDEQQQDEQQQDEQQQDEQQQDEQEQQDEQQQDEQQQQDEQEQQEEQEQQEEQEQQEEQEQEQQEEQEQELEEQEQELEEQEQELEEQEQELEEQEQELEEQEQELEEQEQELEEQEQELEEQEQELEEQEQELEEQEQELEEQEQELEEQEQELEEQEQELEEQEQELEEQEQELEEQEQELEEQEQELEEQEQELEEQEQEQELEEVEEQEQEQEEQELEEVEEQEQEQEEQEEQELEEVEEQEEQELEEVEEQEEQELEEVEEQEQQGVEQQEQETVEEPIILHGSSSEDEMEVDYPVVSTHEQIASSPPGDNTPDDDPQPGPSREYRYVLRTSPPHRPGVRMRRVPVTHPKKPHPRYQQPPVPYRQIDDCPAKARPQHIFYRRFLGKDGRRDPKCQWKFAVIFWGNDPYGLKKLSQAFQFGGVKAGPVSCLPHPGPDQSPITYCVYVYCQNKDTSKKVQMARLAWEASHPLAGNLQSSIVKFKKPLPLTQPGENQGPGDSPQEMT

A word on the AC50: it is the midpoint of the concentration-response curve, whichever way the signal moves. Turning to `CCN(CC)c1ccc2cc(S(=O)(=O)c3ccc(Cl)cc3)c(=O)oc2c1`, the AC50 is 0.246 µM (active) in [1]; 19.1 µM (active) at ORF 73; 10.8 µM (active) in assay [2]; 11.8 µM (active) at Keap1/Nrf2; 35.7 µM (active) in “cells”.

The IC50 is the concentration needed to halve the response being measured. What is called CC50 is the concentration giving 50% cytotoxicity. For the compound `CCN(CC)C(=O)C1CCCc2c1[nH]c1ccc(Cl)cc21` (stereo not given), in the assay on Vero [3], the IC50 is 3.28 µM (active). Besides, the half-maximal cytotoxic concentration (CC50) in the assay on Vero [4] was > 25 µM (active).

As for `CN(C)CCCNc1ncnc2c1c(-c1ccccc1)cn2-c1ccccc1`, the IC50 in the assay on Vero [3] was 23.9 µM (active). Besides, the CC50 in the assay with Vero [4] was > 25 µM (active).

As to `Clc1ccc(Nc2ccccc2/N=c2\ssnc2Cl)cc1`, the results for the IC50 (in assay [5]; at Phosphomannomutase 2) were 9.77 µM (active) and > 100 µM (inactive), respectively.

As usually defined, the EC50 is the concentration giving half of the maximal effect. As to `CCN1CCN(CCNC(=O)c2ccc(/C=C3/Sc4ccccc4N(Cc4ccccc4C)C3=O)cc2)CC1`, the concentration giving a half-maximal response (EC50) with BJ [6] was 6.6 µM (active); in the assay with BJ [7], 13.7 µM (active); with BJ [8], > 150 µM (inconclusive); in assay [9], 9.43 µM (active); in the assay on BJ [10] it was > 133 µM (inconclusive).

Take `O=C(N/N=C/c1cccnc1)c1ccc(NC(=O)C(c2ccccc2)c2ccccc2)cc1`: the EC50 in the assay with BJ [6] is > 150 µM (not active); in the assay on BJ [7], 0.949 µM (inconclusive); in the assay on BJ [8], > 150 µM (not active); in assay [9], > 150 µM (not active); in [11], 40.8 µM (inactive); in the assay on BJ [10], > 66.7 µM (inactive). Also, the EC50 in assay [12] was > 99 µM (inactive). Also, the AC50 in the assay on INS1 was 0.578 µM (active).

In the case of `Cc1cc(C)n(-c2nnc(NC(C)(C)C)nn2)n1`, the AC50 with HeLa was 62.6 µM (active).

Consider `CC1CCN(c2ccc3c(c2)S(=O)(=O)c2ccccc2C3=O)CC1`, for which the AC50 with HeLa was 39.7 µM (active).

Turning to `COc1ccc(N=Nc2nc3cc(Br)c(Br)cc3n2C)c(OC)c1`, the AC50 in assay [2] was 247 µM (active); on Keap1/Nrf2, > 52 µM (inactive).

For the compound `Fc1ccc(/N=c2\ssnc2Cl)cc1`, the IC50 is 11.6 µM (active) in assay [5] and > 100 µM (inactive) at Phosphomannomutase 2.
